Reference: US5395947A, “Platinum(II) complex and processes for preparing the same” (Sunkyong Industries, Ltd., priority 1991, dated 1995)

Columns and labels:
[1] = test system: murine leukemia L1210 cells; assay: Growth inhibition test on cultured murine leukemia L1210 cells; format: cell-based; conditions: 48 hours, 37° C., Trypan blue viability
Method: 1. Growth inhibition test on cultured murine leukemia L1210 cells
Murine leukemia L1210 cells(1×10^5) were treated with various concentrations of the compounds prepared in the above examples in RPMI 1640 medium supplemented with 10% fetal calf serum, and cultured in a 5% CO2 humidified incubator at 37° C. for 48 hours. Their viability, estimated by staining with 0.17% Trypan blue, was compared with that of control cells cultured in the identical medium without the compounds.

[2] = test system: murine leukemia L1210; assay: Antitumor activity test on murine leukemia L1210 in vivo; parameters: species or system male BDF1 mice; conditions: days 1, 5, 9
Method: 2. Antitumor activity test on murine leukemia L1210 in vivo
Murine leukemia L1210 cells were maintained in the peritoneal cavities of 6-week-old male DBA/2 mice by weekly transfer in accordance with the procedure described in cancer chemotherapy Reports, Part 3, 3(2), 7 (1972). Specifically, 1×10^6 leukemia cells were inoculated into the abdominal cavities of 6-week-old male BDF1 mice weighing 21±3 g on day 0. Each treatment group consisted of seven mice. The test compounds were dissolved or suspended in 0.5% carboxymethyl cellulose(CMC)solution (in water) and were administered intraperitoneally on days 1, 5, and 9 relative to the tumor inoculation.
Thirty mice of 6-week-old male BDF1 weighing 21±3 g were used as the control group, which were injected with 0.5% CMC solution only in the same manner as above.
Anti-tumor activities of the compounds were evaluated in terms of the T/C % values calculated from the mean survival time(T) of the compound-treated group over that(C) of the control group. [formula]

[3] = Test for water solubility; format: physicochemical; conditions: water
From the text: 3. Test for water solubility
A standard plot of UV absorbance(220 nm) vs. concentration was made; and employed to determine water-solubility.
The mixture was then passed through a 0.45 micron disposable membrane filter before dilution and UV measurement.

[4] = test system: ICR mice; assay: Acute toxicity test; format: in vivo; parameters: Lethality: unit not given here; conditions: for Lethality: 10080 min
Method: 7-week-old ICR mice(male: 34±2 g; female: 31±2 g) were fed with solid food and water under the condition of 23±1° C. temperature and 65±5% humidity before the test.
Each treatment group consisted of 6 mice. The test compounds were administered intraperitoneally.
For 7 days after the administration, the appearance and the fate of the tested animals were recorded. The dead animals were subjected to autopsy and their visible pathological changes were observed. Their viscerals were stored in 10% formalin solution.

SMILES: NC[C@H]1OC2(CCCCC2)O[C@@H]1CN.O=C1C[O][Pt][O]1 [Example 4, (glycolato-O,O'){cyclohexanespiro-2'-[(4'R,5'R)-4',5'-bis(aminomethyl)-1',3'-dioxolane]}-platinum(II)]
- IC50 (concentration required for 50% inhibition of growth) [1]: 0.08 µg/mL
- T/C (%) ([2]; 3.1 mg/kg i.p.): 102%
- T/C (%) ([2]; 6.2 mg/kg i.p.): 146%
- T/C (%) ([2]; 12.5 mg/kg i.p.): 233%
- T/C (%) ([2]; 25 mg/kg i.p.): 231%
- T/C (%) ([2]; 50 mg/kg i.p.): toxic
- Solubility in water [3]: 2.9 mg/mL
- Number of dead mice for 7 days ([4]; female, 25.0 mg/kg i.p.): 0/6
- Number of dead mice, 1st day ([4]; female, 25.0 mg/kg i.p.): 0/6
- Number of dead mice for 7 days ([4]; female, 32.5 mg/kg i.p.): 0/6
- Number of dead mice, 1st day ([4]; female, 32.5 mg/kg i.p.): 0/6
- Number of dead mice for 7 days ([4]; female, 42.3 mg/kg i.p.): 0/6
- Number of dead mice, 1st day ([4]; female, 42.3 mg/kg i.p.): 0/6
- Number of dead mice for 7 days ([4]; female, 55.0 mg/kg i.p.): 2/6
- Number of dead mice, 1st day ([4]; female, 55.0 mg/kg i.p.): 0/6
- Number of dead mice, 3rd day ([4]; female, 55.0 mg/kg i.p.): 1/6
- Number of dead mice, 4th day ([4]; female, 55.0 mg/kg i.p.): 1/5
- Lethality ([4]; female, 55.0 mg/kg i.p.): 33.3
- Number of dead mice for 7 days ([4]; female, 71.4 mg/kg i.p.): 4/6
- Number of dead mice, 1st day ([4]; female, 71.4 mg/kg i.p.): 0/6
- Number of dead mice, 2nd day ([4]; female, 71.4 mg/kg i.p.): 2/6
- Number of dead mice, 3rd day ([4]; female, 71.4 mg/kg i.p.): 1/4
- Number of dead mice, 4th day ([4]; female, 71.4 mg/kg i.p.): 1/3
- Lethality ([4]; female, 71.4 mg/kg i.p.): 66.7
- Number of dead mice for 7 days ([4]; male, 25.0 mg/kg i.p.): 0/6
- Number of dead mice, 1st day ([4]; male, 25.0 mg/kg i.p.): 0/6
- Number of dead mice for 7 days ([4]; male, 32.5 mg/kg i.p.): 0/6
- Number of dead mice, 1st day ([4]; male, 32.5 mg/kg i.p.): 0/6
- Number of dead mice for 7 days ([4]; male, 42.3 mg/kg i.p.): 0/6
- Number of dead mice, 1st day ([4]; male, 42.3 mg/kg i.p.): 0/6
- Number of dead mice for 7 days ([4]; male, 55.0 mg/kg i.p.): 3/6
- Number of dead mice, 1st day ([4]; male, 55.0 mg/kg i.p.): 0/6
- Number of dead mice, 2nd day ([4]; male, 55.0 mg/kg i.p.): 2/6
- Number of dead mice, 3rd day ([4]; male, 55.0 mg/kg i.p.): 1/4
- Lethality ([4]; male, 55.0 mg/kg i.p.): 50.0
- Number of dead mice for 7 days ([4]; male, 71.4 mg/kg i.p.): 4/6
- Number of dead mice, 1st day ([4]; male, 71.4 mg/kg i.p.): 0/6
- Number of dead mice, 2nd day ([4]; male, 71.4 mg/kg i.p.): 3/6
- Number of dead mice, 3rd day ([4]; male, 71.4 mg/kg i.p.): 1/3
- Lethality ([4]; male, 71.4 mg/kg i.p.): 66.7

SMILES: CC(C)C1O[C@H](CN)[C@@H](CN)O1.O=C1C[O][Pt][O]1 [Example 7, (glycolato-O,O')[(4R,5R)-4,5-bis(aminomethyl)-2-isopropyl-1,3-dioxolane]platinum(II)]
- IC50 (concentration required for 50% inhibition of growth) [1]: 0.06 µg/mL
- T/C (%) ([2]; 3.1 mg/kg i.p.): 155%
- T/C (%) ([2]; 6.2 mg/kg i.p.): 166%
- T/C (%) ([2]; 12.5 mg/kg i.p.): 191%
- T/C (%) ([2]; 25 mg/kg i.p.): toxic
- T/C (%) ([2]; 50 mg/kg i.p.): toxic
- Solubility in water [3]: > 30 mg/mL
- Number of dead mice for 7 days ([4]; female, 25.0 mg/kg i.p.): 0/6
- Number of dead mice, 1st day ([4]; female, 25.0 mg/kg i.p.): 0/6
- Number of dead mice for 7 days ([4]; female, 32.5 mg/kg i.p.): 0/6
- Number of dead mice, 1st day ([4]; female, 32.5 mg/kg i.p.): 0/6
- Number of dead mice for 7 days ([4]; female, 42.3 mg/kg i.p.): 1/6
- Number of dead mice, 1st day ([4]; female, 42.3 mg/kg i.p.): 0/6
- Number of dead mice, 3rd day ([4]; female, 42.3 mg/kg i.p.): 1/6
- Lethality ([4]; female, 42.3 mg/kg i.p.): 16.7
- Number of dead mice for 7 days ([4]; female, 55.0 mg/kg i.p.): 2/6
- Number of dead mice, 1st day ([4]; female, 55.0 mg/kg i.p.): 0/6
- Number of dead mice, 3rd day ([4]; female, 55.0 mg/kg i.p.): 1/6
- Number of dead mice, 4th day ([4]; female, 55.0 mg/kg i.p.): 1/5
- Lethality ([4]; female, 55.0 mg/kg i.p.): 33.3
- Number of dead mice for 7 days ([4]; female, 71.4 mg/kg i.p.): 4/6
- Number of dead mice, 1st day ([4]; female, 71.4 mg/kg i.p.): 0/6
- Number of dead mice, 3rd day ([4]; female, 71.4 mg/kg i.p.): 3/6
- Number of dead mice, 4th day ([4]; female, 71.4 mg/kg i.p.): 1/3
- Lethality ([4]; female, 71.4 mg/kg i.p.): 66.7
- Number of dead mice for 7 days ([4]; male, 25.0 mg/kg i.p.): 0/6
- Number of dead mice, 1st day ([4]; male, 25.0 mg/kg i.p.): 0/6
- Number of dead mice for 7 days ([4]; male, 32.5 mg/kg i.p.): 0/6
- Number of dead mice, 1st day ([4]; male, 32.5 mg/kg i.p.): 0/6
- Number of dead mice for 7 days ([4]; male, 42.3 mg/kg i.p.): 2/6
- Number of dead mice, 1st day ([4]; male, 42.3 mg/kg i.p.): 0/6
- Number of dead mice, 3rd day ([4]; male, 42.3 mg/kg i.p.): 1/6
- Number of dead mice, 5th day ([4]; male, 42.3 mg/kg i.p.): 1/5
- Lethality ([4]; male, 42.3 mg/kg i.p.): 33.3
- Number of dead mice for 7 days ([4]; male, 55.0 mg/kg i.p.): 2/6
- Number of dead mice, 1st day ([4]; male, 55.0 mg/kg i.p.): 0/6
- Number of dead mice, 3rd day ([4]; male, 55.0 mg/kg i.p.): 1/6
- Number of dead mice, 4th day ([4]; male, 55.0 mg/kg i.p.): 1/5
- Lethality ([4]; male, 55.0 mg/kg i.p.): 33.3
- Number of dead mice for 7 days ([4]; male, 71.4 mg/kg i.p.): 4/6
- Number of dead mice, 1st day ([4]; male, 71.4 mg/kg i.p.): 0/6
- Number of dead mice, 3rd day ([4]; male, 71.4 mg/kg i.p.): 2/6
- Number of dead mice, 4th day ([4]; male, 71.4 mg/kg i.p.): 2/4
- Lethality ([4]; male, 71.4 mg/kg i.p.): 66.7
